The text below walks through data of US10342796B2, “Acrylanilide derivative, preparation method, and applications thereof in pharmacy” (Ancureall Pharmaceutical (Shanghai) Co., Ltd., priority 2015, dated 2019).

Experiment in all cases: Growth inhibition GI50 in vitro (CCK8/MTT, 72 h)
Format in all cases: cell-based, human

The test system of assay [1] is H1975 (EGFR L858R/T790M). Particulars: Homo sapiens, NCI-H1975; Table 13, 72 h; read-out: Range of GI50 H1975 (EGFR L858R/T790M). On the procedure: (§1) PC-9ER is an acquired Erlotinib resistance cell line of PC-9 cells developed by the investor. […] The four cell lines above were cultured with 1×RPMI1640 complete medium (supplement with 10% FBS). Human colon cancer cell line SW48 (EGFR G719S positive, ATCC). was cultured with L15 complete medium (10% FB S).
(§2) The suspension cells were collected by centrifugation. The supernatant was discard and the cell pellet was resuspended and counted. Different cell concentrations (5˜10×10^4 cells/mL) were prepared according to the growth cycle of each cell line and then seeded on a 96-well plate (Corning), 100 μL/well. The cells were incubated over night at 37° C., 5% CO2. The compounds were added to the cells on the second day with 2 wells in parallel. The final concentration of organic solvent shall not exceed 1%. The cells were continually incubated for 72 h, and then subjected to MTT assay.
(§3) The present compounds and the reference compounds were dissolved with DMSO (Sigma), respectively. […] The storage concentration of compounds was 10 mM and kept at −20° C. They were diluted by 2 times or 10 times with serial dilution before using.
(§4) Dojindo CCK8 reagent kit was used as MTT assay. […] FC meter was used as microplate reader.
(§5) Adherent cell culture medium was discard and immediately replaced with fresh prepared medium which contains 10% CCK8 reagent (100 μL/well). For the suspension cells, CCK8 was directly added to 10% of the final concentration. The cells were continually incubated for 1˜4 h. When the color of control wells turned to dark yellow, the absorption value was measured at OD450 nm. The cell growth rate was calculated according to the following formula: cell growth rate (%)=100*(T−T0)/(C−T0), T=optical density of drug treatment cell well—optical density of blank control well; T0=optical density of cell well before drug treatment—optical density of blank control well; C=optical density of cell well of solvent control group—optical density of blank control well. […] The experiment was independently repeated 1˜3 times, and subject to biological statistical analysis.

For assay [2], the system named is PC-9 (EGFR dE746-A750). Particulars: Homo sapiens; Table 13, 72 h; read-out: Range of GI50 PC-9 (EGFR dE746-A750). The method, then:
as §1, §2, §3, §4, §5

In assay [3] the test system is N87 (HER2 Amp). The following applies: Homo sapiens; Table 13, 72 h; read-out: Range of GI50 N87 (HER2 Amp).
Assay [4] concerns A549 (EGFR WT). The following applies: Homo sapiens, A549; Table 13, 72 h; read-out: Range of GI50 A549 (EGFR WT).
Text: EGFR wild type cell lines: human epidermal cancer cell line A431 (EGFR WT, amplification and high expression, from Shanghai Cell Bank of Chinese Academy of Sciences and ATCC), NSCLC cell lines NCI-H460 (EGFR WT, Kras G61H and PI3KCA E545K mutants, ATCC) and NCI-H1299 (EGFR WT, ATCC), melanoma cell line A375 (EGFR WT and BRAF V600E mutant, from Shanghai Cell Bank of Chinese Academy of Sciences, ATCC), human lung cancer cell line NCI-H292 (EGFR WT, from human lung mucoepidermoid carcinoma/lymphatic metastasis, purchased from Shanghai Cell Bank of Chinese Academy of Sciences) were cultured with 1×RPMI1640 complete medium which was supplement with 10% FBS. NSCLC cell line A549 (EGFR WT and Kras G12S mutant, from Shanghai Cell Bank of Chinese Academy of Sciences) was cultured with 1×Ham'S F12K complete medium which was supplement with 10% FBS, 1% double-antibiotics and 2 mM glutamine.
as §2, §3, §4, §5

Take `C=CC(=O)Nc1cc(Nc2nccc(-n3ccc4c(O)cccc43)n2)c(OC)cc1N(C)CCN(C)C` [Compound 204, N-(5-(4-(4-hydroxyl-1H-indol-1-yl)-pyrimidin-2-ylamino)-2-(2-(dimethylamino-ethyl)-methyl-amino)-4-methoxyl-phenyl)-acrylamide]: the GI50 was 10 to 100 nM in assay [1], 10 to 100 nM in assay [2], under 10 nM in assay [3] and over 1000 nM in assay [4].

On to `C=CC(=O)Nc1cc(Nc2cc(Nc3ccc(O)c(Cl)c3)ncn2)c(OC)cc1N(C)CCN(C)C` [Compound 253, N-(5-(6-(3-chloro-4-hydroxylphenylamino)-pyrimidin-4-ylamino)-2-((2-dimethylamino-ethyl)-methyl-amino)-4-methoxyl-phenyl)-acrylamide], for which the GI50 in assay [1] is 10 to 100 nM; in assay [2], 10 to 100 nM; in assay [3], 10 to 100 nM; in assay [4], over 1000 nM.

As for `C=CC(=O)Nc1cc(Nc2cc(N(C)c3cc(OC)c(Cl)cc3Cl)ncn2)c(OC)cc1N(C)CCN(C)C` [Compound 249, N-(5-(6-((2,4-dichloro-5-methoxyl-phenyl)-methyl-amino)-pyrimidin-4-ylamino)-2-((2-dimethylamino-ethyl)-methyl-amino)-4-methoxyl-phenyl)-acrylamide], the GI50 was 10 to 100 nM in assay [1], under 10 nM in assay [2], under 10 nM in assay [3] and over 1000 nM in assay [4].

Turning to `C=CC(=O)Nc1cc(Nc2cc(Nc3ccc(OC)c(Cl)c3)ncn2)c(OC)cc1OCCN(C)C` [Compound 218, N-(5-(6-(3-chloro-4-methoxyl-phenylamino)-pyrimidin-4-ylamino)-2-(2-dimethylamino-ethoxyl)-4-methoxyl-phenyl)-acrylamide], the GI50 in assay [1] is 10 to 100 nM; in assay [2] it was under 10 nM; in assay [3] it was 10 to 100 nM; in assay [4], over 1000 nM.

As to `C=CC(=O)Nc1cc(Nc2cc(Nc3cc(OC)c(Cl)cc3Cl)ncn2)c(OC)cc1N(C)CC(=O)N1CCN(C)CC1` [Compound 241, N-(5-(6-(2,4-dichloro-5-methoxyl-phenylamino)-pyrimidin-4-yl-amino)-2-(methyl-(2-(4-methyl-piperazin-1-yl)-2-oxoethyl)-amino)-4-methoxyl-phenyl)-acrylamide], the GI50 in assay [1] was 100 to 1000 nM; in assay [2], 100 to 1000 nM; in assay [3], 100 to 1000 nM; in assay [4], over 1000 nM.

Take `C=CC(=O)Nc1cc(Nc2cc(Nc3ccc(OC)c(Br)c3)ncn2)c(OC)cc1N(C)CCN(C)C` [Compound 224, N-(5-(6-(4-methoxyl-3-bromo-phenylamino)-pyrimidin-4-yl-amino)-2-((2-dimethylamino-ethyl)-methyl-amino)-4-methoxyl-phenyl)-acrylamide]: the GI50 in assay [1] is 10 to 100 nM; in assay [2] it was under 10 nM; in assay [3], 10 to 100 nM; in assay [4] it was over 1000 nM.

As for `C=CC(=O)Nc1cc(Nc2cc(Nc3ccc(OC)c(C(C)=O)c3)ncn2)c(OC)cc1N(C)CCN(C)C` [Compound 256, N-(5-(6-(3-acetyl-4-methoxyphenylamino)-pyrimidin-4-yl-amino)-2-((2-dimethylamino-ethyl)-methyl-amino)-4-methoxyl-phenyl)-acrylamide], the GI50 is 10 to 100 nM in assay [1], 10 to 100 nM in assay [2], 10 to 100 nM in assay [3] and over 1000 nM in assay [4].

`C=CC(=O)Nc1cc(Nc2cc(Nc3ccc(OC)c(C(F)(F)F)c3)ncn2)c(OC)cc1N(C)CCN(C)C` [Compound 222, N-(5-(6-(4-methoxyl-3-trifluoromethyl-phenylamino)-pyrimidin-4-yl-amino)-2-((2-dimethylamino-ethyl)-methyl-amino)-4-methoxyl-phenyl)-acrylamide]: the GI50 is 10 to 100 nM in assay [1], under 10 nM in assay [2], 10 to 100 nM in assay [3] and over 1000 nM in assay [4].

As to `C=CC(=O)Nc1cc(Nc2nccc(-n3ccc4c(-n5c(C)ccc5C)cc(Br)cc43)n2)c(OC)cc1N(C)CCN(C)C` [Compound 214], the GI50 is 10 to 100 nM in assay [1], 10 to 100 nM in assay [2], 10 to 100 nM in assay [3] and over 1000 nM in assay [4].

Turning to `C=CC(=O)Nc1cc(Nc2cc(Nc3ccc(OCCN4CCOCC4)c(Cl)c3)ncn2)c(OC)cc1N(C)CCN(C)C` [Compound 215, N-(5-(6-(3-chloro-4-(2-morpholin-4-yl-ethoxyl)-phenylamino)-pyrimidin-4-ylamino)-2-((2-dimethylamino-ethyl)-methyl-amino)-4-methoxyphenyl)-acrylamide], the GI50 in assay [1] was 10 to 100 nM; in assay [2], under 10 nM; in assay [3], 10 to 100 nM; in assay [4], over 1000 nM.

Take `C=CC(=O)Nc1cc(Nc2ncc(Cl)c(-n3ccc4c(OC)cccc43)n2)c(OC)cc1N(C)CCN(C)C` [Compound 203, N-(5-(4-(4-methoxyl-1H-indol-1-yl)-5-chloropyrimidin-2-ylamino)-2-(2-(dimethylamino-ethyl)-methyl-amino)-4-methoxyl-phenyl)-acrylamide]: the GI50 in assay [1] is under 10 nM; in assay [2], under 10 nM; in assay [3] it was under 10 nM; in assay [4], over 1000 nM.

On to `C=CC(=O)Nc1cc(Nc2cc(Nc3ccc(OC(C)(C)C)c(Cl)c3)ncn2)c(OC)cc1N(C)CCN(C)C` [Compound 250, N-(5-(6-(3-chloro-4-tert-butoxy-phenylamino)-pyrimidin-4-yl-amino)-2-((2-dimethylamino-ethyl)-methyl-amino)-4-methoxyl-phenyl)-acrylamide], for which the GI50 was 10 to 100 nM in assay [1], under 10 nM in assay [2], under 10 nM in assay [3] and over 1000 nM in assay [4].

`C=CC(=O)Nc1cc(Nc2cc(Nc3ccc(OCCC(C)C)c(Cl)c3)ncn2)c(OC)cc1N(C)CCN(C)C` [Compound 219, N-(5-(6-(3-chloro-4-(3-methylbutoxy)-phenylamino)-pyrimidin-4-ylamino)-2-((2-dimethylaminoethyl)-methyl-amino)-4-methoxyphenyl)-acrylamide]: the GI50 in assay [1] was 10 to 100 nM; in assay [2] it was under 10 nM; in assay [3], 10 to 100 nM; in assay [4], over 1000 nM.

As for `C=CC(=O)Nc1cc(Nc2cc(Nc3cc(OC)c(Cl)cc3Cl)ncn2)c(OC)cc1OCCN1CCCCC1` [Compound 246], the GI50 was 10 to 100 nM in assay [1], 10 to 100 nM in assay [2], 10 to 100 nM in assay [3] and over 1000 nM in assay [4].

For `C=CC(=O)Nc1cc(Nc2cc(Nc3cc(OC)c(Cl)cc3Cl)ncn2)c(OC)cc1OCCN1CCN(C)CC1` [Compound 247, N-(5-(6-(2,4-dichloro-5-methoxyl-phenylamino)-pyrimidin-4-yl-amino)-2-(2-(4-methyl-piperazin-1-yl)-ethoxyl)-4-methoxyl-phenyl)-acrylamide], the GI50 was 10 to 100 nM in assay [1], under 10 nM in assay [2], under 10 nM in assay [3] and over 1000 nM in assay [4].

Turning to `C=CC(=O)Nc1cc(Nc2cc(Nc3ccc(C(F)(F)F)c(Cl)c3)ncn2)c(OC)cc1N(C)CCN(C)C` [Compound 234, N-(5-(6-(3-chloro-4-trifluoromethyl-phenylamino)-pyrimidin-4-yl-amino)-2-((2-dimethylamino-ethyl)-methyl-amino)-4-methoxyl-phenyl)-acrylamide], the GI50 in assay [1] is 10 to 100 nM; in assay [2], 10 to 100 nM; in assay [3], 10 to 100 nM; in assay [4], over 1000 nM.
